This note sets out measurements from ChEMBL document CHEMBL1201862, “PubChem BioAssay data set” (2004).

pIC50: −log10 of the molar value. Active and inactive are the calls of the source.

Assay [1] has as its system Streptococcus sp. 'group A'. Put plainly: Streptococcus pyogenes SK(-)GAS viability under kanamycin – luminescence, BacTiterGlo, confirmation, counter-screen for streptokinase expression inhibitor project, dose response (AID 1900). It is filed as functional, organism-based. For orientation: Counterscreens check selectivity or assay interference.
For a further assay, the target named is T1, Streptokinase A (Streptococcus pyogenes serotype M1, UniProt P10520).
T1 sequence (P10520 whole entry): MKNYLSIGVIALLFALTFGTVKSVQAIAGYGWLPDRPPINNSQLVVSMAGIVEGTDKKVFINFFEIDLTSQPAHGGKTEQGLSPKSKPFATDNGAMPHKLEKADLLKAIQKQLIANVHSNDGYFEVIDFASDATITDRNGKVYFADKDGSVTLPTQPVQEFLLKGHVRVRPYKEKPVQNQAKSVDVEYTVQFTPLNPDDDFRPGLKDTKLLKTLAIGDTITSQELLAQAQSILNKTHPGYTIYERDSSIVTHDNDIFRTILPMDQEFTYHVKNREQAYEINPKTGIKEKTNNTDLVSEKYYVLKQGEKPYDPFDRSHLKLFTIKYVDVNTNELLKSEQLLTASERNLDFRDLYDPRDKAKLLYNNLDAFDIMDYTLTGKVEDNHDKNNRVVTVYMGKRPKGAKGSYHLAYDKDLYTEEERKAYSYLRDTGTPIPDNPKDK
Put plainly: viability-normalized secreted streptokinase activity reduction – plasminogen activation absorbance, OD405, dose response (AID 1914).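 Also: secreted streptokinase activity via plasminogen activation per viability signal from cell pellet.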 The assay is classed as functional, Streptococcus pyogenes M1 GAS.

The next assay has as its system Streptococcus. Put plainly: GAS UMAA2166 growth inhibition – luminescence, BacTiterGlo, counter-screen for streptokinase expression inhibitor project, dose response (AID 1915).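 Also: potency for reduction of bacterial viability or growth.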 It is filed as functional, organism-based.
The target of assay [2] is G-protein coupled receptor 55 (Homo sapiens, UniProt Q9Y2T6). Put plainly: selective activators of receptor GPR55 – imaging, U2OS cells, beta-arrestin-GFP redistribution, primary screen (AID 1961). The assay is classed as functional.
Assay [3] in a line: Luminescence Cell-Based Dose Retest to Confirm Inhibitors of Cancer Stem Cells. [Related pubchem assays (depositor defined):AID2717, AID2721]. The assay is classed as functional. The conditions noted are these: Homo sapiens.
Assay [4] concerns the target T2, Mannose-6-phosphate isomerase (Homo sapiens, UniProt P34949).
T2 sequence (P34949 whole entry): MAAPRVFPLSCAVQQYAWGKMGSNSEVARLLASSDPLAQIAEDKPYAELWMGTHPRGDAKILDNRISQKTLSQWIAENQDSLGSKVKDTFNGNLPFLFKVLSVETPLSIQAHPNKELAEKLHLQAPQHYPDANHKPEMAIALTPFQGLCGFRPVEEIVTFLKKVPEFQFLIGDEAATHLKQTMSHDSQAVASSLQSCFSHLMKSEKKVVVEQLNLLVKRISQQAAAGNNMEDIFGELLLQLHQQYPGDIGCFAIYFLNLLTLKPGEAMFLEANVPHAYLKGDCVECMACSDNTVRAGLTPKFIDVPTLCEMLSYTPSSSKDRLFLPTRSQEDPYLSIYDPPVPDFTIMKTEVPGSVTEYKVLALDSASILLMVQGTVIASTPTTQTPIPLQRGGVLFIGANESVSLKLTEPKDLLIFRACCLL
Put plainly: MPI enzyme activity inhibition – biochemical, fluorescence intensity, coupled assay, primary screen (AID 1209).

The target of assay [5] is Induced myeloid leukemia cell differentiation protein Mcl-1 (Homo sapiens, UniProt Q07820). It is filed as functional.
The target in assay [6] is DNA dC->dU-editing enzyme APOBEC-3A (Homo sapiens, UniProt P31941). Put plainly: A3A deaminase inhibition for selectivity – biochemical, dose response (AID 504722). It is filed as functional.
Assay [7] deals with T3, Short transient receptor potential channel 4 (Mus musculus, UniProt Q9QUQ5).
T3 sequence (Q9QUQ5 whole entry): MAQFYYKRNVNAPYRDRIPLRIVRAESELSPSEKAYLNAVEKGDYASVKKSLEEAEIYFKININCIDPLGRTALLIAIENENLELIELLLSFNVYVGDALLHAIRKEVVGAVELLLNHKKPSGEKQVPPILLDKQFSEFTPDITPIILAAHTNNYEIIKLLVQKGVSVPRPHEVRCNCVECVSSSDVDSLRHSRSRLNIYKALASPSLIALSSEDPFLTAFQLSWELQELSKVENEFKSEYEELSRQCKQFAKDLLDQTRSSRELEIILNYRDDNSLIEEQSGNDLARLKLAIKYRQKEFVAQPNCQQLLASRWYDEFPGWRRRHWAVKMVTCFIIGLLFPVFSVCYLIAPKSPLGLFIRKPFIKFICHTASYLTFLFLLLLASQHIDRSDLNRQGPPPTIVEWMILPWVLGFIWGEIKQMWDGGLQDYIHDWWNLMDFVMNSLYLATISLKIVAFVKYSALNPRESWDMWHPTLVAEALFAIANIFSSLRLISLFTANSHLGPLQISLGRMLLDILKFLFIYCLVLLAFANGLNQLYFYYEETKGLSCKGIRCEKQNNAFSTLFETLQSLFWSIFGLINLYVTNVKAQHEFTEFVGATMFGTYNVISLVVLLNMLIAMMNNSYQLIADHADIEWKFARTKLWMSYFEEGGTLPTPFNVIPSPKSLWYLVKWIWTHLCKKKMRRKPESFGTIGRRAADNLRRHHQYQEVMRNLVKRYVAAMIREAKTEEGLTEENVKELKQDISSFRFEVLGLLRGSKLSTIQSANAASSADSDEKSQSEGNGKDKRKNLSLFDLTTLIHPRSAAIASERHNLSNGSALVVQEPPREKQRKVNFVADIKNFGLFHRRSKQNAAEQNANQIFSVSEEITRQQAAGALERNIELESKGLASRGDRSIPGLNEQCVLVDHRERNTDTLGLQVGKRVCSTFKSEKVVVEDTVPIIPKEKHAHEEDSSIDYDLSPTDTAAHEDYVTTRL
Put plainly: block of DAMGO-driven TRPC4 calcium entry – cell-based, HEK293 TRPC4/mu-opioid, Fluo-4 calcium, dose response (AID 434942).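 Also: potency of inhibitors blocking the TRPC4 calcium response.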 It is filed as functional.

The target in assay [8] is DNA dC->dU-editing enzyme APOBEC-3G (Homo sapiens, UniProt Q9HC16). Put plainly: Dose Response confirmation of small molecule APOBEC3G DNA Deaminase Inhibitors via a fluorescence-based single-stranded DNA deaminase assay. [Related pubchem assays (depositor defined):AID493012, AID493028]. It is filed as functional.
The target of assay [9] is DNA damage-inducible transcript 3 protein (Mus musculus, UniProt P35639). It is filed as functional, Cricetulus griseus.
In assay [10] the target is T4, Rac GTPase-activating protein 1 (Homo sapiens, UniProt Q9H0H5).
T4 sequence (Q9H0H5 whole entry): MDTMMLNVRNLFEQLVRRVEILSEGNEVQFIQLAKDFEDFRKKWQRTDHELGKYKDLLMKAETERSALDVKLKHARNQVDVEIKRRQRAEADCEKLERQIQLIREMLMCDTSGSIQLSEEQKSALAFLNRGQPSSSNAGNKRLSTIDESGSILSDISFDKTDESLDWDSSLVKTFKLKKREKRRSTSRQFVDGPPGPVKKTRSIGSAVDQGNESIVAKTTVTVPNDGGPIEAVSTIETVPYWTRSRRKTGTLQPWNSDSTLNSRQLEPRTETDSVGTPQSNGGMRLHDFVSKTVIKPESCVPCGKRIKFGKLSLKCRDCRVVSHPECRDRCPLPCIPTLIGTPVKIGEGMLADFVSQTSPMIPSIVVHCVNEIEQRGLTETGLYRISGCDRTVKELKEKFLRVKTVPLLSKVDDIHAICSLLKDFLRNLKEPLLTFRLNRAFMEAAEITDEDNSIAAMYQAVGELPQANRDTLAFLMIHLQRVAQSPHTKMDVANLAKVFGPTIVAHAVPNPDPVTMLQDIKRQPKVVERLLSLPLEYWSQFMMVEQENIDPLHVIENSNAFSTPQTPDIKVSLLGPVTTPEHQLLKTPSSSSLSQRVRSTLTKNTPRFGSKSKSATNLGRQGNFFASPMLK
Put plainly: blockers of MgcRacGAP-driven Rac1 GTP hydrolysis – biochemical, ADP Hunter fluorescence, primary and confirmatory, confirmation (AID 624330). It is filed as functional.

The target in assay [11] is SWI/SNF-related matrix-associated actin-dependent regulator of chromatin subfamily A member 2 (Homo sapiens, UniProt P51531). Put plainly: Luminescence-based cell-based high throughput dose response assay to identify activators of the function of SWI/SNF related, matrix associated, actin dependent regulator of chromatin, subfamily a, member 2 (SMARCA2, BRM). It is filed as functional.

Assay [12] can be described thus: Counterscreen for activators of the function of SWI/SNF related, matrix associated, actin dependent regulator of chromatin, subfamily a, member 2 (SMARCA2, BRM): Luminescence-based cell-based high throughput dose response assay to identify non-selective compounds using the VP16 reporter assay. It is filed as functional.
Assay [13] has as its target T2, Mannose-6-phosphate isomerase. Put plainly: MPI inhibition at elevated mannose 6-phosphate – biochemical, fluorescence intensity, high mannose 6-phosphate, primary screen (AID 1220).
The next assay concerns the target CAAX prenyl protease 2 (Saccharomyces cerevisiae S288c, UniProt Q03530). It is filed as biochemical.
Assay [14] addresses T5, Delta-type opioid receptor (Homo sapiens, UniProt P41143). Put plainly: HTS Image-Based Screen for Antagonists of the DOR Receptor. [Related pubchem assays (depositor defined):AID1777, AID1785, AID1786, AID2133]. It is filed as functional.
The next assay concerns the target Mu-type opioid receptor (Homo sapiens, UniProt P35372). Put plainly: HTS Image-Based Screen for Agonists of the MOR Receptor. [Related pubchem assays (depositor defined):AID1777, AID1785, AID1786, AID2133]. The assay is classed as functional.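 Also: imaging of beta-arrestin GFP recruitment into spots after receptor activation.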
For assay [15], the target named is T5, Delta-type opioid receptor. Put plainly: HTS Image-Based Screen for Agonists of the DOR Receptor. [Related pubchem assays (depositor defined):AID1777, AID1786, AID2133]. It is filed as functional.
In assay [16] the target is T6, Kappa-type opioid receptor (Homo sapiens, UniProt P41145). The assay is classed as functional.
Assay [17] concerns the target T7, Beta-galactosidase (Escherichia coli, UniProt Q8VNN2). The assay is classed as functional.
Assay [18] concerns the target T6, Kappa-type opioid receptor. The assay is classed as functional. This is another data set of the same source.
Assay [19] concerns the target T7, Beta-galactosidase. Put plainly: detection-enzyme interference by beta-gal modulators – biochemical, E. coli enzyme, set 3, artefact control for CCR6 antagonist project, dose response (AID 504712). The assay is classed as functional.
Assay [20] can be described thus: Luminescence Cell-Based Dose Response HTS to Identify Activators of Luciferase Translation or Activity in H4 […] Cells. [Related pubchem assays: 1829 (Project Summary), 1814 (Primary HTS)]. The assay is classed as functional.
The subject of another assay is H4. Put plainly: Luminescence Cell-Based Dose Response HTS to Identify Activators of 5'UTR Stem-Loop Driven Prion Protein mRNA Translation in H4 Neuroglioblastoma Cells. [Related pubchem assays: 1829 (Project Summary), 1814 (Primary HTS)]. The assay is classed as functional. The note with it: Homo sapiens.
The target in another assay is Troponin, cardiac muscle (Homo sapiens, UniProt P19429+P45379+P63316). Put plainly: Fluorescence-based biochemical high throughput dose response assay for activators of the calcium sensitivity of cardiac Regulated Thin Filaments (RTF). [Related pubchem assays (depositor defined):AID493008, AID493018, AID504382, AID504383]. The assay is classed as protein-complex assay.

For assay [21], the target named is Lysine-specific demethylase 4C (Homo sapiens, UniProt Q9H3R0). Put plainly: inhibition of JMJD2C H3K9me3 demethylation – biochemical, DELFIA europium, cherry-picked samples, dose response (AID 488835). It is filed as functional.

For orientation: EC50 means the concentration that produces a half-maximal response. In general, AC50 refers to the concentration at which the activity in the assay is half-maximal. The IC50 is the concentration at which inhibition is half-maximal. Broadly, the pIC50 is the negative decadic logarithm of the IC50, by convention in mol/L. A higher pIC50 goes with a low IC50.

T7 sequence (Q8VNN2 whole entry): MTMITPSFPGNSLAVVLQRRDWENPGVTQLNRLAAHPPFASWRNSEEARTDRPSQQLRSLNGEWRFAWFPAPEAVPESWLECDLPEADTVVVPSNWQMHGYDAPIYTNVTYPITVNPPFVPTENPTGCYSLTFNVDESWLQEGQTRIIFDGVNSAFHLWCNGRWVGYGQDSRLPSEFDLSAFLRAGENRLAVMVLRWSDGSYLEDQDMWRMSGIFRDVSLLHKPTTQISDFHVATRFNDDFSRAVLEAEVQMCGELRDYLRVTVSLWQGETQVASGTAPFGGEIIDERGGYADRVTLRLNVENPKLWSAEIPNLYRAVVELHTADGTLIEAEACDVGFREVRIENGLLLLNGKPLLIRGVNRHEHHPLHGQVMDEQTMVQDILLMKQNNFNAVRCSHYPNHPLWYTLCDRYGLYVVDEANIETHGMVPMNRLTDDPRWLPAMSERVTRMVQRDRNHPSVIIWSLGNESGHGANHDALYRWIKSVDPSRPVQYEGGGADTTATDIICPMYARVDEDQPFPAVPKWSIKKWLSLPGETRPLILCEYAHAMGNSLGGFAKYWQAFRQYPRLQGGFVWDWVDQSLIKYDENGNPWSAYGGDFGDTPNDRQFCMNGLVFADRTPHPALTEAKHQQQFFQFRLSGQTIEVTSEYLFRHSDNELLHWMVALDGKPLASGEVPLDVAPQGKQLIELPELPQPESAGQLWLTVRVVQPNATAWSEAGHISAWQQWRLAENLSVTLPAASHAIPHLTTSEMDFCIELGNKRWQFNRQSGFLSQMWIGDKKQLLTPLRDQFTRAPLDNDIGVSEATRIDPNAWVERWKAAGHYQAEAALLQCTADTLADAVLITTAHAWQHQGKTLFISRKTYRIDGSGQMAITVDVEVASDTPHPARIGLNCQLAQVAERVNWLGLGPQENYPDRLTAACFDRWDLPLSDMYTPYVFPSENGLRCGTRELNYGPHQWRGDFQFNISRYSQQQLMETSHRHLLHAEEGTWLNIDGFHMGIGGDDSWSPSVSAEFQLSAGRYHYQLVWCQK
T5 sequence (P41143 whole entry): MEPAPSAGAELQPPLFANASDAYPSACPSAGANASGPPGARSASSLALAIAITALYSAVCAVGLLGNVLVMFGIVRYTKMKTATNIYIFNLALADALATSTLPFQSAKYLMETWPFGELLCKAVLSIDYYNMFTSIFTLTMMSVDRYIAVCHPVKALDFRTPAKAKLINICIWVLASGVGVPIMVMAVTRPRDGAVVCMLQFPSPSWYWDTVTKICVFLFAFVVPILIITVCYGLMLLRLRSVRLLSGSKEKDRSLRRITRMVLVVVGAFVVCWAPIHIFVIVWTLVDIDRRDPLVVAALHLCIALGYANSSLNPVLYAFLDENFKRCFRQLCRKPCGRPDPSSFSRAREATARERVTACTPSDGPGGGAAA
T6 sequence (P41145 whole entry): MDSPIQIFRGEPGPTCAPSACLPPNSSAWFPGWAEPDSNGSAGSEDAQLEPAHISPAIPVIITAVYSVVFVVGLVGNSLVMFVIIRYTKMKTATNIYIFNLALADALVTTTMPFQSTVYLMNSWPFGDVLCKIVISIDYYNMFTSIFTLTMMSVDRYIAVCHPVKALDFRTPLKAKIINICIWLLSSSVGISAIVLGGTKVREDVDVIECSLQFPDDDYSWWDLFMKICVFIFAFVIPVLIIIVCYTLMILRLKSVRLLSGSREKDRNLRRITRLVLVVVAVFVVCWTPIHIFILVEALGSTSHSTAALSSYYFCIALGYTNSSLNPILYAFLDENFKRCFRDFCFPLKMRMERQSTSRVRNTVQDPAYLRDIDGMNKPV
Chain of G-protein coupled receptor 55 (Q9Y2T6 whole entry): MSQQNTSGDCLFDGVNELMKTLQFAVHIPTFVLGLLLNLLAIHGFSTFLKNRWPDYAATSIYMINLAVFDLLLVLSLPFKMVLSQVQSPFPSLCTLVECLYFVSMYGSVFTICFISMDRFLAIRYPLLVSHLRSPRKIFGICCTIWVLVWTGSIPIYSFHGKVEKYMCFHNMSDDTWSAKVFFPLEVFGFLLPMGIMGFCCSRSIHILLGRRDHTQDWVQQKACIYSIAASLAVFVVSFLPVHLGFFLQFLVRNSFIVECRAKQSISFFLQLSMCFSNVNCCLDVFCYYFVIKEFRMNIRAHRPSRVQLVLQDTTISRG
Chain of SWI/SNF-related matrix-associated actin-dependent regulator of chromatin subfamily A member 2 (P51531 whole entry): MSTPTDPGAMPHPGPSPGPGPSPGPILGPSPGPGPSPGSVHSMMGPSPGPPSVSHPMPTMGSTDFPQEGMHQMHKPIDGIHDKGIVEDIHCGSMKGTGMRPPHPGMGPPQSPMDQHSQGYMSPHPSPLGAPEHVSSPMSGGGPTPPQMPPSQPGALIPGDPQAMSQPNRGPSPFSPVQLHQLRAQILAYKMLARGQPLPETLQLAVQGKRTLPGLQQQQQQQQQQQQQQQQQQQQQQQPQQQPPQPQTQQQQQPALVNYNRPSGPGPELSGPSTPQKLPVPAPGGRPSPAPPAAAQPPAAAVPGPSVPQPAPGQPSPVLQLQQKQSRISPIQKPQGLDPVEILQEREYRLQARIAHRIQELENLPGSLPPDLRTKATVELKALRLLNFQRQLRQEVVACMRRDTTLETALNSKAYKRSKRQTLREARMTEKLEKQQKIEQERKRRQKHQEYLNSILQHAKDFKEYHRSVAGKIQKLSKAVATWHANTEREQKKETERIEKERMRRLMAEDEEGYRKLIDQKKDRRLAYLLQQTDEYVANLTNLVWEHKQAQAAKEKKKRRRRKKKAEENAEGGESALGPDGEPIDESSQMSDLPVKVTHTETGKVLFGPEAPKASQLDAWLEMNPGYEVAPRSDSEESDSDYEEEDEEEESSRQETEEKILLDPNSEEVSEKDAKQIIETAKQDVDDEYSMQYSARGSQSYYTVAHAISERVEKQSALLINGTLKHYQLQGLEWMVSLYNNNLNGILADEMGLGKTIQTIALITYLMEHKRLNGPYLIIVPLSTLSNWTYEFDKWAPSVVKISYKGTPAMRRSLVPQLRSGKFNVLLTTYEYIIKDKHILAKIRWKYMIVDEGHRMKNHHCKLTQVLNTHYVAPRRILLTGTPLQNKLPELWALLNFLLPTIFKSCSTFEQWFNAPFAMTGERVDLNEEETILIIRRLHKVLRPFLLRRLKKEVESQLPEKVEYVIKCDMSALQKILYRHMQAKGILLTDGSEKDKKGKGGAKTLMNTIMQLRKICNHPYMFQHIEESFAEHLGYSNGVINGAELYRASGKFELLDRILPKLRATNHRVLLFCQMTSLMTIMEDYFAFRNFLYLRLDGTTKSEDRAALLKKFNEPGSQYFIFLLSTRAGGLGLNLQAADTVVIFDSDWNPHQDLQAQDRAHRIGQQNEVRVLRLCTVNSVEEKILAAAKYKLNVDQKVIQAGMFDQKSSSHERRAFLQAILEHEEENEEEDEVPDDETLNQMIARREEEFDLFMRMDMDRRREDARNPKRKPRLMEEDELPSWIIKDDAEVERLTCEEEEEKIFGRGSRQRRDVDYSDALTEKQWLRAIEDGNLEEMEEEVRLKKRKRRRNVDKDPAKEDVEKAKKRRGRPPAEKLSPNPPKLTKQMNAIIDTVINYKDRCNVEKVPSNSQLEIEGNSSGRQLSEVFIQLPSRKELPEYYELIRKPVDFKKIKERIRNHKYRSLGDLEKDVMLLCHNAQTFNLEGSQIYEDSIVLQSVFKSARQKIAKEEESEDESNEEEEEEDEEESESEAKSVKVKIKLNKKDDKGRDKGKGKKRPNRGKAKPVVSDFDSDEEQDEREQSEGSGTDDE
Chain of DNA dC->dU-editing enzyme APOBEC-3G (Q9HC16 whole entry): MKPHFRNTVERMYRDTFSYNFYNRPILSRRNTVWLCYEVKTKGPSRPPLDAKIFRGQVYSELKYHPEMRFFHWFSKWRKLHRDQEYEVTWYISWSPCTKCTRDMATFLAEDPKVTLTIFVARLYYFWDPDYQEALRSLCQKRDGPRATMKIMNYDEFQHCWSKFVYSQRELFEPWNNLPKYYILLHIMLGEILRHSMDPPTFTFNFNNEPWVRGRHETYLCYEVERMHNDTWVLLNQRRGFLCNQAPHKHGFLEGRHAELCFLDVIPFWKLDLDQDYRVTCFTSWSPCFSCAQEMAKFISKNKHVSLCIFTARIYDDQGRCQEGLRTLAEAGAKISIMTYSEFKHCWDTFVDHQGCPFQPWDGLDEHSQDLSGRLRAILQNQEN
Chain of Mu-type opioid receptor (P35372 whole entry): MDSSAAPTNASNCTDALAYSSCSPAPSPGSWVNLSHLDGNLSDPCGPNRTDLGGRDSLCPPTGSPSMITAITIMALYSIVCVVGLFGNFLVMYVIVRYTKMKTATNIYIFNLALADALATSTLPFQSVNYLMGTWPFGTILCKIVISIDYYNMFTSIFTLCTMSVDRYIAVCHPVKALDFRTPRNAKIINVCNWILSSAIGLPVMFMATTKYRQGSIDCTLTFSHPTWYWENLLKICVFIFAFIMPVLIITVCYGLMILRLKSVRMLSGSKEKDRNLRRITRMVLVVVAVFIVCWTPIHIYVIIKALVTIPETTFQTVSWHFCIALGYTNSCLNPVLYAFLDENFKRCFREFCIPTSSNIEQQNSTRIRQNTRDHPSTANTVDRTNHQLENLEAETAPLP
Chain of DNA dC->dU-editing enzyme APOBEC-3A (P31941 whole entry): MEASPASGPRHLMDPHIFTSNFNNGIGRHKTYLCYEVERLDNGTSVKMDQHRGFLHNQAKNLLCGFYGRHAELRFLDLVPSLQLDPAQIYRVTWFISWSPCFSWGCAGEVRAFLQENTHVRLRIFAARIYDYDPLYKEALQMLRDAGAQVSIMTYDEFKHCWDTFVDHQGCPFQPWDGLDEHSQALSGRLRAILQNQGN
Chain of CAAX prenyl protease 2 (Q03530 whole entry): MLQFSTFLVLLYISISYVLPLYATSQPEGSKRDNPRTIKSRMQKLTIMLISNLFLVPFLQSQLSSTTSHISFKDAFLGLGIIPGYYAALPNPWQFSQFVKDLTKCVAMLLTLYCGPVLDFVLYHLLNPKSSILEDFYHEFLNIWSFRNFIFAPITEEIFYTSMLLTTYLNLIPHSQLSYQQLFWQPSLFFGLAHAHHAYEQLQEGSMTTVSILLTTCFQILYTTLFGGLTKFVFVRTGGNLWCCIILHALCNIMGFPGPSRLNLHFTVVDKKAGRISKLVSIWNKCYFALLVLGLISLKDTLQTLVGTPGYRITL

With `CC(C)Cn1c(O)c(N=NC(=O)c2cccc(S(=O)(=O)N3CCCCC3)c2)c2ccccc21`, the EC50 is 5.53 µM (active) in assay [1], > 150 µM (not active) on Streptokinase A, 34.3 µM (active) with Streptococcus and 4.75 µM (active) in assay [2]. Besides, the AC50 in [3] is 20.5 µM (active).
With `CC(=O)C1=C(S(=O)(=O)c2ccc(C)cc2)CS(=O)(=O)C1`, the IC50 in [4] was 28.1 µM (active); in [5] it was 10.9 µM (active); in assay [6], > 100 µM (inactive); in assay [8], 8.26 µM (active); in [10], 34.3 µM (active). Besides, the figures for the EC50 in [7], in assay [11] and in [12] were 4.73 µM (active), > 91.2 µM (inactive) and > 91.2 µM (inactive), respectively. Besides, the “Absolute IC50 (CHOP)” value in [9] came out at 10 µM.
As for `OCCN(CCO)c1ccc2ccccc2c1`, the IC50 is 21.3 µM (active) in assay [4], > 50 µM (not active) in assay [13] and 56.3 µM (active) in [10]. The AC50 at CAAX prenyl protease 2 was 63.8 µM (active).
For the compound `O=C(NC(=S)N1CCN(c2ccc(Cl)cc2[N+](=O)[O-])CC1)c1cccs1`, the IC50 in assay [14] is > 32 µM (inactive); in assay [16], 12.3 µM (active); at Beta-galactosidase [19], > 66.6 µM (inactive). In addition, the EC50 at Mu-type opioid receptor is > 32 µM (inactive); in assay [1], 2.08 µM (active); in assay [15], > 32 µM (inactive); at Beta-galactosidase [17], > 31.5 µM (inactive); in the assay with Streptococcus, 4.3 µM (active). In addition, the pIC50 in [18] was less than 4.49.
In the case of `Cc1c(C(=O)c2ccc(Cl)c(Cl)c2)cnc2cc3c(cc12)OCO3`, the EC50 in assay [2] was > 32 µM (inactive).
`CC(/C=N/Nc1ccc2nncn2n1)=C\c1ccccc1`: the EC50 in assay [20] is 20.7 µM (active); in the assay on H4 it was > 120 µM (not active); at Troponin, cardiac muscle, > 71.5 µM (inactive).
Turning to `O=C(NCCCNCCCNC(=O)c1ccc(/C=N/O)nc1)c1ccc(/C=N/O)nc1`, the AC50 in assay [21] was 18 µM (active).
